Entries after “also recorded” stand apart in the source; their conditions may differ.
Key:
[1] = tested on: protein sulfhydryl (protein-SH) groups; test: Protein sulfhydryl groups (dibromobimane assay); format: cell-based; details: 12 h treatment
Procedure: Protein reduced thiol groups (Protein-SH) were measured by dibromobimane assays with minor modifications (PMID:20463849). The 6-well plated cells (500,000 cells) were scraped in 0.6 mL PBS and 200 μL Perchloric acid (6 N) was added to precipitate proteins. The samples were incubated for 5 min in ice, centrifuged (14,000×g) Supernatants containing small peptides and glutathione were discarded and pellets were resuspended in 100 μL NaOH 0.1N, neutralized with 100 μL ice cold Perchloric acid (0.1 N), and 0.1 N PBS was added to keep pH constant. A stock solution of 4 mM dibromobimane in DMSO was added to a final concentration 40 μM, and incubated for 30 30 min at 37° C. Dibromobimane-protein fluorescence was measured at Ex=393 and, Em=477 nm.

human endothelial cells = test: In vitro angiogenesis (Angiophase kit, CD31); format: cell-based; details: CM from sorafenib treatments
Procedure: Quantification of MMP1 and MMP3 content in culture medium was assessed using RayBio-MMP3 and RayBio-MMP1 Elisa Kit (RayBiotech, Inc); IL8 was analyzed by Human IL-8 Elisa kit (Pierce Biotechnology). The levels of prostaglandin E2 (PGE2) were determined using the Prostaglandin E2 EIA Kit Monoclonal (Cayman Chemical Company). Culture media were diluted to fit within the standard curves. For conditioned media (CM) preparation for invasion and in vitro angiogenesis experiments, 12-well plated cells were treated with MMS (or MMS plus inhibitors) for 8 h in the presence of 10% FBS, twice washed with HBSS, and incubated with 700 μL drug/serum-free fresh medium for additional 12 h. Thereafter, the conditioned fresh medium was collected and directly used for migration and invasion experiments in order to reduce freezing associated loss of activity.
The Angiophase kit (MBL Inc.) was used to assess the angiogenic potential of conditioned media (CM) from breast cancer cells or the direct effect of pharmaceutical inhibitors (free-drug system) on vessel-like structures formation in vitro. With this kit, human endothelial cells are co-cultured in a specially designed medium to form threadlike tubule structures. These gradually join up to form a network of anastomosing tubules, which resemble the capillary bed found in the CAM assay. Kit-provided cryopreserved co-culture of human endothelial cells were plated and kept for 96 h (proliferative phase) without treatments. Afterwards, the cells were maintained in the presence of conditioned medium from alkylating agent treated cells or control medium for a total of 14 days (angiogenic/vasculogenic phase). Medium was changed each 2 days. At the end of treatments, the cells were fixed and immune-stained for CD31 (PECAM-1), following by incubation with secondary antibody conjugate. ELISA was developed using the soluble substrate p-nitrophenyl-phosphate (p-NPP) whose product was colorimetrically read at 405 nm. After ELISA assays, the wells were washed with dH2O and tubule staining was performed by incubating CD31-stained tubules with the substrate BCIP/NBT, which form insoluble precipitates. Tubules were counted and photographed for qualitative monitoring.

[2] = tested on: MDA-MB231 xenograft implants; test: MDA-MB231 xenograft study; format: in vivo, mouse
Source text: The study was approved by the University of Texas Health Science Center at San Antonio Institutional Animal Care and Use Committee (IACUC) policy as outlined in protocol number 11024. The facility is operated in compliance with the Public Law 89-544 (Animal Welfare Act) and its amendments, Public Health Services Policy on Humane Care and Use of Laboratory Animals (PHS Policy) using the Guide for the Care and Use of Laboratory Animals (Guide) as the basis of operation. Selection of cyclophosphamide and sorafenib doses was based on previously published reports (Sun et al., 2010, J Int Med Res 38, 967-76; Wilhelm et al., 2004 Cancer Res 64, 7099-109). MDA-MB-231 cells were harvested by trypsinization, washed and re-suspended in serum-free medium. Thereafter, cells were mixed with matrigel (1:1), and approximately 5×10^6 cells were subcutaneously injected in the right flank of each mouse. When the average tumor volume reached about 100 mm^3, mice were randomized into groups of 8 animals each, and the following treatment protocol was implemented: Group 1 (control): 100 μL of saline (i.p.); Group 2: sorafenib (1 mg/kg; i.p.) for 9 days; Group 3: cyclophosphamide 0.1 g/kg on days 2, 4, 6 and 8; Group 4: Sorafenib+cyclophosphamide (combination of same above described regimens). All animals were sacrificed 5 days after the end of treatments (15th day of the treatment protocol). Body weight of mice was recorded weekly, and tumor size was measured thrice a week in two dimensions using a digital caliper. The tumor volume was calculated by the formula 0.5236 L1(L2)^2, where L1 is the long axis, and L2 is the short axis of the tumor. At the termination of the study, mice were euthanized; tumors were excised and a part was fixed in 10% phosphate-buffered formalin for H&E, Masson's staining and immunohistochemistry (IHC) analyses.

| Compound | protein sulfhydryl residues [1] | angiogenesis with CM from treated cells (human endothelial cells) | tumor growth, single agent ([2]; sorafenib 1 mg/kg i.p. 9 days, cyclophosphamide 0.1 g/kg days 2, 4, 6, 8) | tumor growth, combination with cyclophosphamide ([2]; sorafenib 1 mg/kg i.p. plus cyclophosphamide 0.1 g/kg) | tumor volume at which growth was stabilized ([2]; sorafenib alone, 7 days of treatment) | effect on cyclophosphamide-induced angiogenic response ([2]; sorafenib combined with cyclophosphamide) |
| --- | --- | --- | --- | --- | --- | --- |
| COS(C)(=O)=O [MMS, methyl-methanesulfonate] | deplete protein sulfhydryl residues | – | – | – | – | – |
| CNC(=O)c1cc(Oc2ccc(NC(=O)Nc3ccc(Cl)c(C(F)(F)F)c3)cc2)ccn1 [sorafenib, 4-[4-[[4-chloro-3-(trifluoromethyl)phenyl]carbamoylamino]phenoxy]-N-methyl-pyridine-2-carboxamide] | – | inhibition of angiogenesis | significantly decrease tumor growth | synergize with cyclophosphamide | ~150 mm^3 | significant inhibition of cyclophosphamide-induced angiogenic response; also recorded: blocked cyclophosphamide-induced vessels formation |
